Measurements: publication PMC11167782, “Tunlametinib (HL-085) plus vemurafenib in patients with advanced BRAF V600-mutant solid tumors: an open-label, single-arm, multicenter, phase I study” (Experimental Hematology & Oncology, 2024)

Tests used:
patients = system: patients; set-up: method as in PMID 21639808; conditions: phase III trial; cited from earlier work
CYP3A4 = system: CYP3A4; set-up: method as in earlier work; conditions: cited from earlier work
[1] = Phase I study: plasma pharmacokinetics (UPLC-MS/MS); conditions: for AUC(0-t) / AUC / Cmax / Tmax: human, plasma; for AUC(0-t): AUClast; for AUC(0-t) / AUC / Cmax: mean (SD); for AUC: AUCtau
Experimental: PK assessments were performed using a validated ultra-performance liquid chromatography-tandem mass spectrometry method.
All samples analyzed within established storage stability periods.

BRAF V600-mutant NSCLC = conditions: monotherapy; cited from earlier work
BRAF V600-mutant PTC = system: BRAF V600-mutant PTC; set-up: method as in PMID 35658604; conditions: monotherapy; cited from earlier work
[2] = Multiple dose, Tunlametinib 9mg BID + vemurafenib 720mg BID
[3] = Multiple dose, Tunlametinib 9mg BID + vemurafenib 960mg BID
[4] = Multiple dose, Tunlametinib 12mg BID + vemurafenib 720mg BID
[5] = Multiple dose, Tunlametinib 12mg BID + vemurafenib 960mg BID
[6] = Multiple dose, Vemurafenib 720mg BID Total
[7] = Multiple dose, Vemurafenib 960mg Total
[8] = Single dose, Tunlametinib 9mg BID + vemurafenib 720mg BID
[9] = Single dose, Tunlametinib 9mg BID + vemurafenib 960mg BID
[10] = Single dose, Tunlametinib 12mg BID + vemurafenib 720mg BID
[11] = Single dose, Tunlametinib 12mg BID + vemurafenib 960mg BID
[12] = 720 mg, Multiple dose, Vemurafenib 720mg BID Total
[13] = 720 mg, Single dose, Vemurafenib 720mg BID Total
[14] = 960 mg, Multiple dose, Vemurafenib 960mg Total
[15] = 960 mg, Single dose, Vemurafenib 960mg Total
[16] = vemurafenib, multiple administrations, across doses

CCCS(=O)(=O)Nc1ccc(F)c(C(=O)c2c[nH]c3ncc(-c4ccc(Cl)cc4)cc23)c1F [Vemurafenib, vemurafenib]
Incidence of photosensitivity (patients): 30% | Main metabolizing enzyme (CYP3A4): metabolized mainly by CYP3A4 | Cavg, mean (SD) [1, 2]: 29792.81 (1092.82) ng/mL | Fluctuation%, mean (SD) [1, 2]: 37.17 (4.45) % | RAUClast (accumulation ratio), mean (SD) [1, 2]: 11.76 (5.15) | RCmax (accumulation ratio), mean (SD) [1, 2]: 8.92 (3.76) | Cavg, mean (SD) [1, 3]: 47113.74 (NC) ng/mL | Fluctuation%, mean (SD) [1, 3]: 19.95 (NC) % | RAUClast (accumulation ratio), mean (SD) [1, 3]: 36.26 (58.5) | RCmax (accumulation ratio), mean (SD) [1, 3]: 16.01 (16.13) | Cavg, mean (SD) [1, 4]: 34081.99 (20393.59) ng/mL | Fluctuation%, mean (SD) [1, 4]: 36.48 (16.11) % | RAUClast (accumulation ratio), mean (SD) [1, 4]: 10.61 (4.88) | RAUCtau (accumulation ratio), mean (SD) [1, 4]: 13.29 (4.87) | RCmax (accumulation ratio), mean (SD) [1, 4]: 8.54 (4.03) | Cavg, mean (SD) [1, 5]: 28324.83 (NC) ng/mL | Fluctuation%, mean (SD) [1, 5]: 25.42 (NC) % | RAUClast (accumulation ratio), mean (SD) [1, 5]: 10.75 (2.55) | RCmax (accumulation ratio), mean (SD) [1, 5]: 8.23 (1.79) | Cavg, mean (SD) [1, 6]: 32652.26 (15958.81) ng/mL | Fluctuation%, mean (SD) [1, 6]: 36.71 (12.64) % | RAUClast (accumulation ratio), mean (SD) [1, 6]: 11.10 (4.84) | RAUCtau (accumulation ratio), mean (SD) [1, 6]: 13.29 (4.87) | RCmax (accumulation ratio), mean (SD) [1, 6]: 8.70 (3.77) | Cavg, mean (SD) [1, 7]: 45227.97 (17802.57) ng/mL | Fluctuation%, mean (SD) [1, 7]: 29.65 (16.23) % | RAUClast (accumulation ratio), mean (SD) [1, 7]: 23.92 (39.19) | RAUCtau (accumulation ratio), mean (SD) [1, 7]: 14.07 (NC) | RCmax (accumulation ratio), mean (SD) [1, 7]: 13.22 (11.54) | AUC_%Extrap, mean (SD) [1, 8]: 56.66 (6.57) % | AUC_%Extrap, mean (SD) [1, 9]: 57.98 (NC) % | AUC_%Extrap, mean (SD) [1, 10]: 61.30 (6.78) % | AUC_%Extrap, mean (SD) [1, 11]: 64.58 (NC) % | AUC_%Extrap, mean (SD) ([1]; Single dose, Vemurafenib 720mg BID Total): 60.37 (6.66) % | AUC_%Extrap, mean (SD) ([1]; Single dose, Vemurafenib 960mg Total): 61.29 (11.94) % | AUC(0-t) [1, 12]: 372 µg·h/mL | AUC(0-t) [1, 13]: 39.3 µg·h/mL | AUC [1, 12]: 392 µg·h/mL | AUC [1, 13]: 41 µg·h/mL | Cmax [1, 12]: 36600 ng/mL | Cmax [1, 13]: 4890 ng/mL | Tmax ([1]; 720 mg, Tmax, median (range), Multiple dose, Vemurafenib 720mg BID Total): 2.07 h | Tmax ([1]; 720 mg, Tmax, median (range), Single dose, Vemurafenib 720mg BID Total): 4 h | AUC(0-t) [1, 14]: 503 µg·h/mL | AUC(0-t) [1, 15]: 50.5 µg·h/mL | AUC [1, 14]: 543 µg·h/mL | AUC [1, 15]: 61.2 µg·h/mL | Cmax [1, 14]: 48300 ng/mL | Cmax [1, 15]: 6220 ng/mL | Tmax ([1]; 960 mg, Tmax, median (range), Multiple dose, Vemurafenib 960mg Total): 3.99 h | Tmax ([1]; 960 mg, Tmax, median (range), Single dose, Vemurafenib 960mg Total): 4.01 h | AUC(0-t) [1, 2]: 376 µg·h/mL | AUC(0-t) [1, 3]: 530 µg·h/mL | AUC(0-t) [1, 4]: 379 µg·h/mL | AUC(0-t) [1, 5]: 456 µg·h/mL | AUC(0-t) [1, 8]: 45.8 µg·h/mL | AUC(0-t) [1, 9]: 65.3 µg·h/mL | AUC(0-t) [1, 10]: 37.2 µg·h/mL | AUC(0-t) [1, 11]: 47.1 µg·h/mL | AUC [1, 2]: 358 µg·h/mL | AUC [1, 3]: 565 µg·h/mL | AUC [1, 4]: 409 µg·h/mL | AUC [1, 5]: 340 µg·h/mL | AUC [1, 8]: 55.2 µg·h/mL | AUC [1, 9]: 118 µg·h/mL | AUC [1, 10]: 38.2 µg·h/mL | AUC [1, 11]: 37.7 µg·h/mL | Cmax [1, 2]: 37400 ng/mL | Cmax [1, 3]: 49200 ng/mL | Cmax [1, 4]: 36800 ng/mL | Cmax [1, 5]: 42800 ng/mL | Cmax [1, 8]: 5710 ng/mL | Cmax [1, 9]: 7360 ng/mL | Cmax [1, 10]: 4610 ng/mL | Cmax [1, 11]: 5710 ng/mL | Tmax ([1]; Tmax, median (range), Multiple dose, Tunlametinib 9mg BID + vemurafenib 720mg BID): 3.92 h | Tmax ([1]; Tmax, median (range), Multiple dose, Tunlametinib 9mg BID + vemurafenib 960mg BID): 4.07 h | Tmax ([1]; Tmax, median (range), Multiple dose, Tunlametinib 12mg BID + vemurafenib 720mg BID): 1.93 h | Tmax ([1]; Tmax, median (range), Multiple dose, Tunlametinib 12mg BID + vemurafenib 960mg BID): 3.95 h | Tmax ([1]; Tmax, median (range), Single dose, Tunlametinib 9mg BID + vemurafenib 720mg BID): 4 h | Tmax ([1]; Tmax, median (range), Single dose, Tunlametinib 9mg BID + vemurafenib 960mg BID): 3.96 h | Tmax ([1]; Tmax, median (range), Single dose, Tunlametinib 12mg BID + vemurafenib 720mg BID): 4 h | Tmax ([1]; Tmax, median (range), Single dose, Tunlametinib 12mg BID + vemurafenib 960mg BID): 4.07 h | Tmax ([1]; oral, Median Tmax, vemurafenib, single-dose): ~4 h | Average accumulation ratio based on AUClast [1, 16]: 10.6 to 36.3 | Average accumulation ratio based on AUCtau [1, 16]: 13.3 to 14.1 | Average accumulation ratio based on Cmax [1, 16]: 8.2 to 16.0

CC(C)(C)c1nc(-c2cccc(NS(=O)(=O)c3c(F)cccc3F)c2F)c(-c2ccnc(N)n2)s1 [dabrafenib]
Median PFS (BRAF V600-mutant NSCLC): 5.5 months | ORR (BRAF V600-mutant NSCLC): 33% | ORR (BRAF V600-mutant PTC): 35%
